Results as given in patent US12466839B2, “Allosteric AKT inhibitors for use in the treatment of Hereditary Hemorrhagic Telangiectasia” (VADERIS THERAPEUTICS AG, priority 2020, dated 2025).

What was measured:
[1] = molecular target: T1, A2A (Homo sapiens, UniProt P29274); assay: Millipore Drug Discovery Safety and Liability Panel; assay type: cell-based
T1 construct: purchased Millipore

[2] = test system: Thrombin-activated PARs; assay: as above; assay type: cell-based; conditions: 10 μM
[3] = molecular target: T2, NTR1 (Homo sapiens, UniProt P30989); assay: as above; assay type: cell-based
T2 construct: Millipore

[4] = molecular target: T3, OX1 (Homo sapiens, UniProt O43613); assay: as above; assay type: cell-based
T3 construct: Millipore

[5] = test system: KChIP2 (Homo sapiens); assay: Cardiac ion channel profile; assay type: cell-based
[6] = molecular target: T4, CX3CR1 (Homo sapiens, UniProt P49238); assay: Millipore Drug Discovery Safety and Liability Panel; assay type: cell-based
T4 construct: purchased Millipore

[7] = molecular target: T5, PTH1 (Homo sapiens, UniProt Q03431); assay: as above; assay type: cell-based
T5 construct: Millipore

[8] = molecular target: p38α (Homo sapiens, UniProt Q16539); assay: Panel of 450 kinases and 10-point titration curve; assay type: biochemical
[9] = test system: AKT; assay: AKT inhibition in primary lung endothelial cells with normal Eng expression (western blot); assay type: cell-based; conditions: Mus musculus, Endothelial cell; lung ECs from controls with normal level of Eng expression; VEGF-A stimulation
Description: Lungs from Engflox/flox pups were surgically removed, rinsed in ice-cold DMEM and endothelial cells were isolated as described in Galaris et al., (2021) “In vitro Three-Dimensional Sprouting Assay of Angiogenesis using Mouse Embryonic Stem Cells for Vascular Disease Modeling and Drug Testing” J Vis Exp (171). In summary, tissues were minced by the use of scissors, digested in DMEM-3 mg·ml-1 Collagenase A (10103586001, Roche) for 15 min at 37° C. and then filtered through a 70-μm strainer. The cell suspension was centrifuged at 200 g for 5 min and CD45+ cells were removed using Dynabeads sheep anti-Rat IgG (11035, Invitrogen) coated with rat anti-mouse CD45 antibody (550539, BD Pharmigen). Endothelial cells were sorted using Dynabeads sheep anti-Rat IgG (11035, Invitrogen) coated with rat anti-mouse PECAM1 antibody (550274, BD Pharmigen) according to the manufacturer's instructions. After washing 5 times with DMEM-0.1% BSA, cells were seeded in 6 well plates. Lung and liver ECs were maintained for two-three passages in Endothelial Cell Growth Medium 2 (C-22011, PromoCell) complemented with Fetal Calf Serum, Human Epidermal Growth Factors, Basic Fibroblast Growth Factor, Insulin like Growth Factor, Human Vascular Endothelial Growth Factor-165, Ascorbic acid, Heparin and Hydrocortisone (C-39211, SupplementPack EC GM2, PromoCell). […]

[10] = molecular target: T6, BB2 (Homo sapiens, UniProt P30550); assay: Millipore Drug Discovery Safety and Liability Panel; assay type: cell-based
T6 construct: purchased Millipore

[11] = molecular target: full length AKT2 (Homo sapiens, UniProt P31751); assay: Biochemical kinase assay
[12] = test system: mutated forms of all three AKT isoforms containing inactive pleckstrin homology (PH) domains; assay: Biochemical kinase assay, PH-domain mutants
[13] = molecular target: T7, 5-HT2A (Homo sapiens, UniProt P28223); assay: Millipore Drug Discovery Safety and Liability Panel; assay type: cell-based
T7 construct: purchased Millipore

[14] = molecular target: T8, Motilin (Homo sapiens, UniProt O43193); assay: as above; assay type: cell-based
T8 construct: purchased Millipore

[15] = molecular target: T9, AKT3 (Homo sapiens, UniProt Q9Y243); assay: Panel of 450 kinases; assay type: biochemical
[16] = molecular target: Kv4.3 (Homo sapiens, UniProt Q9UK17); assay: Cardiac ion channel profile; assay type: cell-based
[17] = molecular target: T9, AKT3; assay: Biochemical kinase assay
[18] = molecular target: AKT1 (Homo sapiens, UniProt P31749); assay: Panel of 450 kinases; assay type: biochemical
[19] = molecular target: full length AKT1 (Homo sapiens, UniProt P31749); assay: Biochemical kinase assay
[20] = molecular target: T10, LPA3 (Homo sapiens, UniProt Q9UBY5); assay: Millipore Drug Discovery Safety and Liability Panel; assay type: cell-based
T10 construct: purchased Millipore

[21] = read-out: ANTAGONIST mean % inhibition
[22] = read-out: AGONIST mean % increase in activity

T9 sequence (Q9Y243 whole entry): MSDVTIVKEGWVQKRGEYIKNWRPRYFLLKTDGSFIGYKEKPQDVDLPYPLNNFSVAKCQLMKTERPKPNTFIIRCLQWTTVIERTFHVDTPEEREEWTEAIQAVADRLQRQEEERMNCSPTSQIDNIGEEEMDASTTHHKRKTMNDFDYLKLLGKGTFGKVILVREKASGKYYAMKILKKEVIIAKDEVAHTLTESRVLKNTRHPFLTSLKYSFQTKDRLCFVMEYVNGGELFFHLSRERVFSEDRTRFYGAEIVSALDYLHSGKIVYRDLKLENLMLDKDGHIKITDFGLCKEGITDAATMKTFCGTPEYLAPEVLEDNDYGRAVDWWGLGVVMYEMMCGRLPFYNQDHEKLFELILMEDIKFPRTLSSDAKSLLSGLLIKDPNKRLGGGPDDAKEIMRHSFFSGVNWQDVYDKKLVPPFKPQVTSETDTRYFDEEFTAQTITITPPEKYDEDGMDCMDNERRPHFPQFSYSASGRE
T4 sequence (P49238 whole entry): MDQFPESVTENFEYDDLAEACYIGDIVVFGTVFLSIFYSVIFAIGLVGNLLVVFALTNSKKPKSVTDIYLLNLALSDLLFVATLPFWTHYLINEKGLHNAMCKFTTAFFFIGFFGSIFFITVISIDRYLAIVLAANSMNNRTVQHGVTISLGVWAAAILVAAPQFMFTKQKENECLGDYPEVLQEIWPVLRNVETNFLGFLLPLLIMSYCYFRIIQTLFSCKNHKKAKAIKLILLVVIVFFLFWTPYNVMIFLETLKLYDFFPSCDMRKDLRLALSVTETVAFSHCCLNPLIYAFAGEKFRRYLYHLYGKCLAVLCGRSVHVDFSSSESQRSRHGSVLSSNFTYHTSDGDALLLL
T3 sequence (O43613 whole entry): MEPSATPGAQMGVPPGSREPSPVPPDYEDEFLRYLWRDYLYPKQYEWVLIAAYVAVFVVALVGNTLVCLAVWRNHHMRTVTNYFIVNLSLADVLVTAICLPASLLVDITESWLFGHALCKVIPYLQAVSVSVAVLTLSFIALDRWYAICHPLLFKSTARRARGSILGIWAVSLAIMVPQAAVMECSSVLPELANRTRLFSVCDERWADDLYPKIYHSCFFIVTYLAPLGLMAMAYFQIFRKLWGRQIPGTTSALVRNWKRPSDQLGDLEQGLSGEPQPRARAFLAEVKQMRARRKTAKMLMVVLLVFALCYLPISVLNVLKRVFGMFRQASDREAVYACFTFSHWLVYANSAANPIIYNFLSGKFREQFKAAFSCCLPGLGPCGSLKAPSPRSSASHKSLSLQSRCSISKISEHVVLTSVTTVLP
p38α, sequence (Q16539 whole entry): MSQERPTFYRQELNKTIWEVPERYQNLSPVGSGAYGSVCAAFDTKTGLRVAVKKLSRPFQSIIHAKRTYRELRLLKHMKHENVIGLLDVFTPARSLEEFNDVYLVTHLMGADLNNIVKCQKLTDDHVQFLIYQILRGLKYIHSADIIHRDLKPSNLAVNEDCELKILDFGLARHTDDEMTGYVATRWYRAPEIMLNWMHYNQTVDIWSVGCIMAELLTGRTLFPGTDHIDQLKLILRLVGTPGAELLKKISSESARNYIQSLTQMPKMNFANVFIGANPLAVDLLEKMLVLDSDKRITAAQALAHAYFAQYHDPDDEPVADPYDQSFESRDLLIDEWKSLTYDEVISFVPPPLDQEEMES
T6 sequence (P30550 whole entry): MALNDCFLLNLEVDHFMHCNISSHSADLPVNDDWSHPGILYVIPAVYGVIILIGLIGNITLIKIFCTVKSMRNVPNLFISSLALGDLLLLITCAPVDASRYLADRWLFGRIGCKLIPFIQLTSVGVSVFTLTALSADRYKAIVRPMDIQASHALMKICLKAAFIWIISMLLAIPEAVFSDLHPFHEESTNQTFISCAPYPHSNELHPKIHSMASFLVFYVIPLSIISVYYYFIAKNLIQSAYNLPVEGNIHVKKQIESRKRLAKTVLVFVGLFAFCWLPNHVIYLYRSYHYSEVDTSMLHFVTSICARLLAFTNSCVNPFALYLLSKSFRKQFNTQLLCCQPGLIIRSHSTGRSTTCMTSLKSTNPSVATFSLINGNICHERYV
T8 sequence (O43193 whole entry): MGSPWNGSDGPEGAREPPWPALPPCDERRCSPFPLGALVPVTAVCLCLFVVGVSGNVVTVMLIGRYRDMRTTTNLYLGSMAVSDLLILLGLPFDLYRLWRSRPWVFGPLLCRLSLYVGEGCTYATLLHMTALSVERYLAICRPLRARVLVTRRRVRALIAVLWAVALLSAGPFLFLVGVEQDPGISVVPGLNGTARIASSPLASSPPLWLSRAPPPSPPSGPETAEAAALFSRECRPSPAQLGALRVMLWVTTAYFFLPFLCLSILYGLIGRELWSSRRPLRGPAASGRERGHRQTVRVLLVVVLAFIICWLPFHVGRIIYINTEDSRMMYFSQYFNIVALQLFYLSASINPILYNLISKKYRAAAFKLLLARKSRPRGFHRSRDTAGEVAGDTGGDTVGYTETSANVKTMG
T5 sequence (Q03431 27-593): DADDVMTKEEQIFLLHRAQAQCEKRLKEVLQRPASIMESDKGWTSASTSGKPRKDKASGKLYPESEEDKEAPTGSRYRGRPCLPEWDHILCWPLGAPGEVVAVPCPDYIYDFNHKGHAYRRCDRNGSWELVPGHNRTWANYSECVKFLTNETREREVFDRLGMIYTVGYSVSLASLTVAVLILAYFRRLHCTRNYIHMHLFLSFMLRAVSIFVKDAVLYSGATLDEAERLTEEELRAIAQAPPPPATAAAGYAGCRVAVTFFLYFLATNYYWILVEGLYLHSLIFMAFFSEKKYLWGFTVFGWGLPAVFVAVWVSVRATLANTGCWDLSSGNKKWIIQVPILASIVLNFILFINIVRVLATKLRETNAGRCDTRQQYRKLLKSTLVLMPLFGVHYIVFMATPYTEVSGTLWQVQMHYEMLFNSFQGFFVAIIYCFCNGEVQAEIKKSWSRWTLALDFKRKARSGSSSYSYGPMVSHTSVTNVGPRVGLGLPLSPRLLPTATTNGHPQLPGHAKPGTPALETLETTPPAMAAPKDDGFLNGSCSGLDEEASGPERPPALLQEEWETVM
T2 sequence (P30989 whole entry, species assumed): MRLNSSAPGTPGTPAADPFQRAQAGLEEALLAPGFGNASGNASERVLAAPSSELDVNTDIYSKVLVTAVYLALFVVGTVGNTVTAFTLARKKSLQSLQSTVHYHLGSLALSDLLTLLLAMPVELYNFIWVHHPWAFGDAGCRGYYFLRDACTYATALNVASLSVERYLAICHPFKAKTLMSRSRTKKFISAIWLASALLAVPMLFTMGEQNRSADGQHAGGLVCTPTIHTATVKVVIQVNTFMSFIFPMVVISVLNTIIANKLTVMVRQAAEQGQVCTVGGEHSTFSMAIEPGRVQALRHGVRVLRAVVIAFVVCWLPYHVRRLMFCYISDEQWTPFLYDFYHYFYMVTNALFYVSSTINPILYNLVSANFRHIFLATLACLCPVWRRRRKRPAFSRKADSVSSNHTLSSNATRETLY
T7 sequence (P28223 whole entry): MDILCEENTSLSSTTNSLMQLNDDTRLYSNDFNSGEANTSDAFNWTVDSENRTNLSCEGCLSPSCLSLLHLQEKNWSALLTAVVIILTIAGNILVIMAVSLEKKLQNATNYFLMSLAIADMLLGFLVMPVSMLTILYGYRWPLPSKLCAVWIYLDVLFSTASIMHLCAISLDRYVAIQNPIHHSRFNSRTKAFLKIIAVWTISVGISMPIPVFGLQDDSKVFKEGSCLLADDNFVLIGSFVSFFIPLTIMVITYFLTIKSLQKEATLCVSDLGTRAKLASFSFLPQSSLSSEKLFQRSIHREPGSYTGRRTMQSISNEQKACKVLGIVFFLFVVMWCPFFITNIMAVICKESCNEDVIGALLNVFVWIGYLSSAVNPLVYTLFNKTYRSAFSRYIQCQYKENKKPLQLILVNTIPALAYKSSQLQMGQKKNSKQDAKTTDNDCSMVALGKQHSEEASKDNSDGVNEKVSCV
T10 sequence (Q9UBY5 whole entry, species assumed): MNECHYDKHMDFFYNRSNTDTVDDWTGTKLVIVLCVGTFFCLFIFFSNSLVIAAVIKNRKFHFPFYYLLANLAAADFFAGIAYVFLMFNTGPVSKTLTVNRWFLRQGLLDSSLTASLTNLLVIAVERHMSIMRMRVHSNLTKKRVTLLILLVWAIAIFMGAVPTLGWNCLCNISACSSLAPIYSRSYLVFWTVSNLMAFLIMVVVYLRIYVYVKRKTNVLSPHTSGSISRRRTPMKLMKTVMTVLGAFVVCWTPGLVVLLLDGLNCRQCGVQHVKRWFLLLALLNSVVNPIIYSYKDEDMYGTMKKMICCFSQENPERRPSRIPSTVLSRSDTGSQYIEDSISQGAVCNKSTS
T1 sequence (P29274 whole entry): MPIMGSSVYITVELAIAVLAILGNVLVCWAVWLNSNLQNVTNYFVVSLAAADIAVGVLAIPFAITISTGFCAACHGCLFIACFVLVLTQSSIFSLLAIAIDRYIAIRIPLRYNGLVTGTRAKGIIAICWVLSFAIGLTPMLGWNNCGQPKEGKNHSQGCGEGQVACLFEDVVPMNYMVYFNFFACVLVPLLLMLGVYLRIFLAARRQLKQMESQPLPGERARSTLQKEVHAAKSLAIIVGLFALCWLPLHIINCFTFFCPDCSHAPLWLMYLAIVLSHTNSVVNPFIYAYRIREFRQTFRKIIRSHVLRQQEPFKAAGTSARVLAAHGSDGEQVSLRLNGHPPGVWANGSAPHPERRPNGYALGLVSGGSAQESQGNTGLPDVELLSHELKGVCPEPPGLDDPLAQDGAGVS

Structure (SMILES): CCN1C(=O)COc2nc(-c3ccc(C4(N)CC(O)C4)cc3)c(-c3ccccc3)cc21.O=C(O)C(O)C(O)C(=O)O [VAD044, 6-(4-(1-amino-3-hydroxycyclobutyl)phenyl)-1-ethyl-7-phenyl-1H-pyrido[2,3-b][1,4]oxazin-2(3H)-one L-tartrate]
- AGONIST mean % increase in activity ([1]; A2A, 10 μM): 2.3%
- inhibition at 10 µM [1, 21]: 12.5%
- AGONIST mean % increase in activity [2]: 0%
- ANTAGONIST mean % inhibition [2]: −1.2%
- activation at 10 µM ([3]; NTR1, 10 μM, read-out: AGONIST mean % increase in activity): -0.6%
- inhibition at 10 µM [3, 21]: 6.1%
- activation at 10 µM ([4]; OX1, 10 μM, read-out: AGONIST mean % increase in activity): -1.8%
- inhibition at 10 µM [4, 21]: -3.8%
- inhibition at 10 µM [5]: < 25%
- AGONIST mean % increase in activity ([6]; CX3CR1, 10 μM): 0%
- inhibition at 10 µM [6, 21]: 0.6%
- activation at 10 µM ([7]; PTH1, 10 μM, read-out: AGONIST mean % increase in activity): -1.1%
- inhibition at 10 µM [7, 21]: -2.5%
- inhibition at 10 µM ([8]; 10 μM): 84%
- IC50 ([8]; 10-point titration curve): > 10 µM
- IC50 [9]: 0.055 µM
- activation at 10 µM ([10]; BB2, 10 μM, read-out: AGONIST mean % increase in activity): -0.9%
- inhibition at 10 µM [10, 21]: 0.9%
- IC50 [11]: 0.095 µM
- inhibition of mutated AKT forms [12]: not inhibited
- activation at 10 µM [13, 22]: 1.3%
- inhibition at 10 µM [13, 21]: -0.7%
- activation at 10 µM [14, 22]: -0.3%
- inhibition at 10 µM [14, 21]: 50%
- inhibition at 10 µM [15]: 72%
- inhibition at 10 µM [16]: < 25%
- IC50 [17]: > 0.5 µM
- EC50 ([17]; read-out: EC50 value for the AKT3 isoform): > 0.5 µM
- inhibition at 10 µM [18]: 89%
- IC50 [19]: 0.125 µM
- activation at 10 µM ([20]; LPA3, 10 μM, read-out: AGONIST mean % increase in activity): -0.7%
- inhibition at 10 µM [20, 21]: -0.2%
